According to BindingDB's records for doi:10.1021/jm00095a009 (Dupont Pharmaceuticals, 1992):

Molecular target: Phospholipase A2 (Crotalus adamanteus)
Test: Inhibitory activity against phospholipase A2 of Croatalus adamanteus

IC50 | Structure (SMILES)
> 1 mM | OC(Cn1ccnc1)(c1ccc(F)cc1)c1ccc(-c2ccncc2)cc1 (stereo not drawn)
> 1 mM | Cc1ccc(C(O)(Cn2ccnc2)c2ccc(-c3ccncc3)cc2)cc1 (stereo not drawn)
> 1 mM | Oc1c(Cc2ccccc2)ccc2ccccc12
